#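 All cell lines were grown in 96-well plates and treated with compound for 48 hours. TGI: concentration producing complete growth inhibition.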
# Tested on: SW-620 colon
# Test: growth of human tumour cells (NCI), 48 h
row,SMILES,TGI [µM]
1,C=C1C(=O)OC2/C=C(\CO)C3OC3C3OC3(C)CC(OC(=O)/C(=C/C)CO)C12 (configuration not stated),> 100
2,COc1ccc2cc(CNCCCCCCCCCCCCNCc3ccc4cc(OC)ccc4c3)ccc2c1,> 51.9
3,COc1cc(S(=O)(=O)Nc2nc(-c3ccc(N4C(=O)CSC4c4cccs4)cc3)cs2)ccc1Cl (configuration not stated),> 100
4,COc1cc(S(=O)(=O)Nc2nc(-c3ccc(N4C(=O)C(CC(=O)O)SC4c4ccccc4O)cc3)cs2)ccc1Cl (configuration not stated),> 100
5,N#C/C(=C\c1cn(Cc2ccccc2)c2ccccc12)c1nn(-c2ccccc2)c(N)c1C#N,36.3
6,COCC(N=CN1CCCc2ccccc2[C@@H]1CCCCl)C(C)(C)C (some centres not stated),57.6
7,CNc1c2cccc(C)c2nc2c(C(=O)NCCN(C)C)cccc12,0.424
8,O=C1CC(NC(=O)C(F)(F)F)c2c1csc2Br (configuration not stated),> 100
9,C[C@]12C[C@H](c3ccccc3)Nc3ccccc3N1C(c1ccccc1)=NO2,> 100
10,CC[C@](O)(CC(=O)O[C@H]1C(=O)O[C@@H]2C[C@H]3C(C)=CC(=O)[C@@H](O)[C@]3(C)[C@H]3[C@@]4(O)OC[C@]32[C@@H]1[C@@H](C)[C@H]4O)C(C)C,< 0.01
11,O=C1CC(=O)NC(=NN2C(=O)/C(=C/C(=O)c3ccco3)N=C2c2ccccc2)N1,> 100

# Tested on: HCT-15 colon
# Test: growth of human tumour cells (NCI), 48 h
row,SMILES,TGI [µM]
1,COc1ccc2cc(Oc3ccc(Cl)cc3)c(=O)oc2c1,> 100
2,CCN(CC)c1cc2c3c(c1)CCCN3CCC2,> 10
3,CC(=O)O[C@H]1CC[C@H]2[C@@H]3CCC4C(C)=NNC(=O)C4[C@H]3CC[C@]12C (some centres not stated),> 100
4,O=c1[nH]c(C23CC4CC(CC(C4)C2)C3)cc2c1c(=O)oc1ccccc12,81.3
5,CC1=NN(C(=O)CC(=O)Nc2ccc(C)cc2)C(=O)C1N=Nc1ccc(C(=O)O)cc1 (configuration not stated),> 100
6,O=C1C(=O)c2c(oc(=O)c3ccccc23)-c2ccccc21,> 25
7,CCOC(=O)C(C(=O)OCC)=C1NC2(c3ccccc3Nc3ccc(C)cc32)C(C#N)S1 (configuration not stated),29.5
8,CN1CCC2(CC1)SC[C@H]1C(=O)N(c3ccc(Cl)cc3)C(=O)N12,> 100
9,CC(C)=CCC[C@@H](C)C1=C(O)C(O)C(C)=C2N=C(c3ccccc3)C(=O)OC21 (some centres not stated),> 25
10,CC(C)(C)[Si](C)(C)O[C@@H](C(=O)OC1C=CCCC1)[C@@H](NC(=O)c1ccccc1)c1ccccc1 (some centres not stated),> 100
11,O=C(Nc1cccc2ccccc12)Nn1cnnc1,> 100
12,Cc1oc2c(c1C)S(=O)(=O)C(C#N)=C(c1ccccc1)N2,> 100
13,CCOC(=O)C1=CN/C(=C(/C)C(=O)OC)SC1C(=O)OCC (configuration not stated),> 100
14,Cc1ccc2c(c1)C(=O)/C(=N/Nc1ccc(Cl)cc1)CCO2,> 100
15,COc1cc(C2SCC(=O)N2c2ccccc2Cl)cc(OC)c1OC (configuration not stated),> 100
16,C=C1C(=O)OC2/C=C(\CO)C3OC3C3OC3(C)CC(OC(=O)/C(=C/C)CO)C12 (configuration not stated),> 100
17,COc1ccc2cc(CNCCCCCCCCCCCCNCc3ccc4cc(OC)ccc4c3)ccc2c1,50.9
18,COc1cc(S(=O)(=O)Nc2nc(-c3ccc(N4C(=O)CSC4c4cccs4)cc3)cs2)ccc1Cl (configuration not stated),46.7
19,COc1cc(S(=O)(=O)Nc2nc(-c3ccc(N4C(=O)C(CC(=O)O)SC4c4ccccc4O)cc3)cs2)ccc1Cl (configuration not stated),> 100
20,N#C/C(=C\c1cn(Cc2ccccc2)c2ccccc12)c1nn(-c2ccccc2)c(N)c1C#N,> 100
21,COCC(N=CN1CCCc2ccccc2[C@@H]1CCCCl)C(C)(C)C (some centres not stated),> 100
22,CNc1c2cccc(C)c2nc2c(C(=O)NCCN(C)C)cccc12,0.634
23,O=C1CC(NC(=O)C(F)(F)F)c2c1csc2Br (configuration not stated),> 100
24,C[C@]12C[C@H](c3ccccc3)Nc3ccccc3N1C(c1ccccc1)=NO2,> 100
25,CC[C@](O)(CC(=O)O[C@H]1C(=O)O[C@@H]2C[C@H]3C(C)=CC(=O)[C@@H](O)[C@]3(C)[C@H]3[C@@]4(O)OC[C@]32[C@@H]1[C@@H](C)[C@H]4O)C(C)C,< 0.0117
26,O=C1CC(=O)NC(=NN2C(=O)/C(=C/C(=O)c3ccco3)N=C2c2ccccc2)N1,> 100

# Tested on: ACHN renal
# Test: growth of human tumour cells (NCI), 48 h
row,SMILES,TGI [µM]
1,COc1ccc2cc(Oc3ccc(Cl)cc3)c(=O)oc2c1,> 100
2,CCN(CC)c1cc2c3c(c1)CCCN3CCC2,> 10
3,CC(=O)O[C@H]1CC[C@H]2[C@@H]3CCC4C(C)=NNC(=O)C4[C@H]3CC[C@]12C (some centres not stated),> 100
4,O=c1[nH]c(C23CC4CC(CC(C4)C2)C3)cc2c1c(=O)oc1ccccc12,10.6
5,CC1=NN(C(=O)CC(=O)Nc2ccc(C)cc2)C(=O)C1N=Nc1ccc(C(=O)O)cc1 (configuration not stated),> 100
6,O=C1C(=O)c2c(oc(=O)c3ccccc23)-c2ccccc21,> 25
7,CCOC(=O)C(C(=O)OCC)=C1NC2(c3ccccc3Nc3ccc(C)cc32)C(C#N)S1 (configuration not stated),16.3
8,CN1CCC2(CC1)SC[C@H]1C(=O)N(c3ccc(Cl)cc3)C(=O)N12,> 100
9,CC(C)=CCC[C@@H](C)C1=C(O)C(O)C(C)=C2N=C(c3ccccc3)C(=O)OC21 (some centres not stated),> 13.7
10,CC(C)(C)[Si](C)(C)O[C@@H](C(=O)OC1C=CCCC1)[C@@H](NC(=O)c1ccccc1)c1ccccc1 (some centres not stated),62.9
11,O=C(Nc1cccc2ccccc12)Nn1cnnc1,> 100
12,Cc1oc2c(c1C)S(=O)(=O)C(C#N)=C(c1ccccc1)N2,> 100
13,CCOC(=O)C1=CN/C(=C(/C)C(=O)OC)SC1C(=O)OCC (configuration not stated),> 100
14,Cc1ccc2c(c1)C(=O)/C(=N/Nc1ccc(Cl)cc1)CCO2,> 100
15,COc1cc(C2SCC(=O)N2c2ccccc2Cl)cc(OC)c1OC (configuration not stated),> 100
16,C=C1C(=O)OC2/C=C(\CO)C3OC3C3OC3(C)CC(OC(=O)/C(=C/C)CO)C12 (configuration not stated),> 100
17,COc1ccc2cc(CNCCCCCCCCCCCCNCc3ccc4cc(OC)ccc4c3)ccc2c1,36.6
18,COc1cc(S(=O)(=O)Nc2nc(-c3ccc(N4C(=O)CSC4c4cccs4)cc3)cs2)ccc1Cl (configuration not stated),> 100
19,COc1cc(S(=O)(=O)Nc2nc(-c3ccc(N4C(=O)C(CC(=O)O)SC4c4ccccc4O)cc3)cs2)ccc1Cl (configuration not stated),> 100
20,N#C/C(=C\c1cn(Cc2ccccc2)c2ccccc12)c1nn(-c2ccccc2)c(N)c1C#N,75.6
